Measured values from patent publication US20040040097A1, “Coloring composition for keratin fibres comprising a system limiting the transcutaneous passage of an oxidation dye” (L'OREAL, priority 2002, published 2004).

Tested on: rebuilt skin (for example Epiderm, Episkin or Skinethic)
Assay: Penetration rate of 5,6-dihydroxyindole through rebuilt skin in static diffusion cells, VIS spectrophotometry of oxidation products
Format: in vitro ADME
Settings: 5 mM final concentration, 16 hour coating at an infinite dose
Experimental: The 5,6-dihydroxyindole mixture with the system limiting the transcutaneous passage has been prepared fresh by adding an system equivalent volume (=1 mM MnCl2 in 1 M NaHCO3; pH=10) to an aqueous solution of 10 mM 5,6-dihydroxyindole. Then, it has been coated on rebuilt skin (for example Epiderm® from Mattek, Inc., Episkin® from Episkin SNC or Skinethic® from Skinethic Laboratories) placed in diffusion cells in a static diffusion mode at a dose of 250 mg·cm^2 for 16 hours. The analysis of the penetration rates of 5,6-dihydroxyindole through the skin has been conducted through VIS spectrophotometry through the oxidation products thereof. The 5,6-dihydroxyindole range has been prepared as follows. A plurality of dilutions from 0 to 0.5 mM 5,6-dihydroxindole in receiving liquid has been left for 16 hours at 32° C. for forming oxidation products in the form of a pigment. Such pigments absorb visible light (VIS) (“scattering” effect) depending on their concentration, which is directly related to the initial 5,6-dihydroxyindole concentration. Thus, the 5,6-dihydroxyindol range has been obtained through VIS absorption of such pigments formed after 5,6-dihydroxyindole oxydation. A 1:1 mixture between 10 mM 5,6-dihydroxyindole and distilled water has been used as a control. […]

penetration rate of the 5,6-dihydroxyindole (with no system (control mixture, 1:1 with distilled water)): approximately 3 % of the dose coated
penetration rate of the 5,6-dihydroxyindole (with the system (1 mM MnCl2 in 1 M NaHCO3, pH 10, equivalent volume)): lower than 0.5%
Structure (SMILES): Oc1cc2cc[nH]c2cc1O [5,6-dihydroxyindole]
